Experimental data published in EP4635958A1, “PYRIMIDINE-CONTAINING POLYCYCLIC DERIVATIVE INHIBITOR, AND PREPARATION METHOD THEREFOR AND USE THEREOF” (Shanghai Hansoh Biomedical Co., Ltd., priority 2022, dated 2024).
Counter-ions that a name gives are not always drawn. Like-named read-outs stand apart in the source and are kept apart here.

Legend:
[1] = test system: human pancreatic cancer cell line (HPAC); assay: Antitumor efficacy in mouse transplanted tumor model of human pancreatic cancer cell line (HPAC); type: in vivo, mice (BALB/c nude); settings: HPAC xenograft, 100mpk, PO*BID; for Tumor volume (mm^3, Mean ± SD) Day 0: Day 0 (baseline)
Source text: 8-10 week old female conventional immunodeficient mice (BALB/c nude) with a body weight of 18 g-22 g were used as experimental animals, and a transplanted tumor model of human pancreatic cancer cell line (HPAC) was used to conduct in vivo efficacy experiments to test the anti-tumor results of the example compounds after gavage administration.
The example compounds of the present invention, made in house.
A certain amount of the example compound was weighed, and an appropriate amount of 10% vehicle (Solutol HS15) was added. The mixture was stirred on a magnetic stirrer for 0.5 h to formulate a homogeneous suspension at the desired concentration.
Human pancreatic cancer cell line (HPAC) was derived from COBIOER BIOSCIENCES CO., LTD, cultured on DMEM/F12 medium (Gibco, 11330-032) supplemented with 10% fetal calf serum (Gibco, 10091-148), 1×Insulin (51500-056, Gibco) and 10 ng/ml of EGF (PHG0311, Gibco) and observed under a microscope (Thermo Fisher, 311). The cells were routinely passaged when the cells reached 80%-90% confluence in the culture flask. The passaged cells were cultured in a 37°C, 5% CO2 incubator (Thermo Fisher, 311).
Under aseptic conditions, human pancreatic cancer cells (HPAC) in the logarithmic growth phase were harvested using 0.25% trypsin-EDTA (Gibco, 25200-056), washed and resuspended with phosphate buffer. The cell suspension was mixed with Matrigel (Corning, 356234) at a 1 : 1 ratio (v/v) and implanted subcutaneously into the right anterior dorsal region of immunodeficient mice (BALB/c nude). Each mouse was inoculated with 3*10^6 cells in a volume of 100 microliters (µL). After inoculation, when the tumor volume reached 100-200 mm^3, the mice would be evenly randomized into 5 groups based on the tumor size, with 5 mice per group, for in vivo efficacy experiments. The negative control group was the vehicle group.
Mode of administration: The example compounds were administered orally.
Twice a week, the long and short diameters of the tumor were measured using a vernier caliper, and the tumor volume (mm^3) was calculated using the formula: V = 0.5*D*d*d, where D and d are the long and short diameters of the tumor, respectively. The anti-tumor efficacy was determined by dividing the average increase in tumor volume of compound-treated animals by the average increase in tumor volume of untreated animals. The calculation formula for tumor inhibition rate was: When there is no tumor regression, TGI(%) = 100-[(Vt-V0) administration group/(Vt-V0) vehicle control group]*100%. When tumor regression occurs, TGI(%) = [1-(Vt-V0) administration group/V0 vehicle control group]*100%. All animals were euthanized after the experiment.

[2] = Pharmacokinetic determination in mice (IV and PO, plasma, LCMS/MS); type: in vivo, Balb/c mice; settings: for F: PO 30 mg/kg vs IV 1 mg/kg; for AUC(0-inf) / C0 / clearance / half-life / Cmax / Tmax: mouse, in vivo; for C0: read-out: C0; for clearance: read-out: CL; for half-life: read-out: T1/2 (converted)
Procedure, shortened: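 Male Balb/c mice, fasted overnight (n=3 per route): PO 30 mg/kg in 10% Captisol/50 mM citrate pH 5.0, or IV 1 mg/kg in 5% DMSO/10% Solutol HS15/85% PBS. Orbital blood sampled predose to 24 h; EDTA plasma analysed by LC-MS/MS.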

[3] = Balb/c mice, intravenously (IV), 1 mg/kg, plasma, read-out: AUCo-∞
[4] = Balb/c mice, intravenously (IV), 1 mg/kg, plasma
[5] = PO, 30 mg/kg, male Balb/c mice, overnight fasting, plasma, read-out: AUC0-∞
[6] = PO, 30 mg/kg, male Balb/c mice, overnight fasting, plasma, read-out: Cmax
[7] = PO, 30 mg/kg, male Balb/c mice, overnight fasting, plasma
[8] = PO, 30 mg/kg, male Balb/c mice, overnight fasting, plasma, read-out: Tmax

Row | Molecule | Tumor volume (mm^3, Mean ± SD) Day 0 ([1]; Table 11) | TGI(%) Day 21 ([1]; Table 11) | Tumor volume (mm^3, Mean ± SD) Day 21 ([1]; Table 11) | ΔT/ΔC(%) Day 21 ([1]; Table 11) | F ([2]; male Balb/c mice) | AUC(0-inf) [2, 3] | C0 [2, 4] | clearance [2, 4] | half-life [2, 4] | AUC(0-inf) [2, 5] | Cmax [2, 6] | half-life [2, 7] | Tmax [2, 8] | also measured
1 | 4-((5S,5aS,6R,9S)-12-((1-((((R)-4-(difluoromethylene)-2-methylpiperidin-1-yl)methyl)cyclopropyl)methoxy)-1-fluoro-5-(methyl-d3)-5a,6,7,8,9,10-hexahydro-5H-4-oxa-3,10a,11,13,14-pentaaza-6,9-methylnaphtho[1,8-ab]hept-2-yl)-5-ethynyl-6-fluoronaphthalen-2-ol [Example 162] | 210 mm^3 | 126.15% | 155 mm^3 | 13.54% |  |  |  |  |  |  |  |  |  | 
2 | C#Cc1c(F)ccc2cc(O)cc(-c3nc4c5c(nc(OCC6(CN7CCC(=C(F)F)CC7)CC6)nc5c3F)N3C[C@H]5CC[C@H](N5)[C@H]3CO4)c12 [Example 1-1, 4-((5aS,6S,9R)-12-((1-((4-(difluoromethylene)piperidin-1-yl)methyl)cyclopropyl)methoxy)-1-fluoro-5a,6,7,8,9,10-hexahydro-5H-4-oxa-3,10a,11,13,14-pentaaza-6,9-methylenenaphtho[1,8-ab]heptalene-2-yl)-5-ethynyl-6-fluoronaphthalen-2-ol] |  |  |  |  | 12.1% | 583 ng·h/mL | 886 ng/mL | 28.6 mL/min/kg | 8.6 h | 2110 ng·h/mL | 227 ng/mL | 9.1 h | 0.5 h | 
3 | C#Cc1c(F)ccc2cc(O)cc(-c3nc4c5c(nc(OCC6(CN7CCC(=C(F)F)CC7)CC6)nc5c3F)N3C[C@H]5CC[C@H](N5)[C@H]3[C@H](C)O4)c12 [Example 19-1, 4-((5S,5aS,6S,9R)-12-((1-((4-(difluoromethylene)piperidin-1-yl)methyl)cyclopropyl)methoxy)-1-fluoro-5-methyl-5a,6,7,8,9,10-hexahydro-5H-4-oxa-3,10a,11,13,14-pentaaza-6,9-methylnaphtho[1,8-ab]hept-2-yl)-5-ethynyl-6-fluoronaphthalene-2-ol] |  |  |  |  | 11.2% | 476 ng·h/mL | 904 ng/mL | 35 mL/min/kg | 11.2 h | 1610 ng·h/mL | 316 ng/mL | 7.2 h | 1 h | 
4 | C#Cc1c(F)ccc2cc(O)cc(-c3nc4c5c(nc(OCC6(CN7CCC(=NOC)CC7)CC6)nc5c3F)N3C[C@H]5CC[C@H](N5)[C@H]3[C@H](C)O4)c12 [Example 35-1, 1-((1-((((5S,5aS,6S,9R)-2-(8-ethynyl-7-fluoro-3-hydroxynaphthalen-1-yl)-1-fluoro-5-methyl-5a,6,7,8,9,10-hexahydro-5H-4-oxa-3,10a,11,13,14-pentaaza-6,9-methylenenaphtho[1,8-ab]heptalen-12-yl)oxo)methyl)cyclopropyl)methyl)piperidin-4-one O-methyloxime formate] |  |  |  |  |  | 144 ng·h/mL | 693 ng/mL | 116 mL/min/kg | 3.2 h |  |  |  |  | Tumor volume (mm^3, Mean ± SD) Day 0 ([1]; Table 12): 469 mm^3; TGI(%) Day 14 ([1]; Table 12): 76.39%; ΔT/ΔC(%) Day 14 ([1]; Table 12): 61.00%; Tumor volume (mm^3, Mean ± SD) Day 21 ([1]; Table 12): 585 mm^3
5 | C#Cc1c(F)ccc2cc(O)cc(-c3nc4c5c(nc(OCC6(CN7CCC(=CF)CC7)CC6)nc5c3F)N3C[C@H]5CC[C@H](N5)[C@H]3[C@H](C)O4)c12 [Example 129, 5-ethynyl-6-fluoro-4-((5S,5aS,6S,9R)-1-fluoro-12-((1-((4-(fluoromethylene)piperidin-1-yl)methyl)cyclopropyl)methoxy)-5-methyl-5a,6,7,8,9,10-hexahydro-5H-4-oxa-3,10a,11,13,14-pentaaza-6,9-methylnaphtho[1,8-ab]hept-2-yl)naphthalen-2-ol] | 209 mm^3 | 97.63% | 231 mm^3 | 20.27% |  |  |  |  |  |  |  |  |  | 
6 | [2H]C([2H])([2H])[C@@H]1Oc2nc(-c3cc(O)cc4ccc(F)c(C#C)c34)c(F)c3nc(OCC4(CN5CCC(=C(F)F)CC5)CC4)nc(c23)N2C[C@H]3CC[C@H](N3)[C@@H]12 [Example 161, 4-((5S,5aS,6S,9R)-12-((1-((4-(difluoromethylene)piperidin-1-yl)methyl)cyclopropyl)methoxy)-1-fluoro-5-(methyl-d3)-5a,6,7,8,9,10-hexahydro-5H-4-oxa-3,10a,11,13,14-pentaaza-6,9-methylnaphtho[1,8-ab]hept-2-yl)-5-ethynyl-6-fluoronaphthalen-2-ol] | 209 mm^3 | 137.45% | 131 mm^3 | 11.47% |  |  |  |  |  |  |  |  |  | AUC(0-inf) ([2]; po, 30 mg/kg): 1550 ng·h/mL; Cmax ([2]; po, 30 mg/kg): 221 ng/mL; Tmax ([2]; po, 30 mg/kg): 2 h
7 | [2H]C([2H])(Oc1nc2c3c(nc(-c4cc(O)cc5ccc(F)c(C#C)c45)c(F)c3n1)O[C@@H](C)[C@@H]1[C@@H]3CC[C@H](CN21)N3)C1(C([2H])([2H])N2CCC(=CF)CC2)CC1 [Example 291, 5-ethynyl-6-fluoro-4-((5S,5aS,6S,9R)-1-fluoro-12-((1-((4-(fluoromethylene)piperidin-1-yl)methyl-d2)cyclopropyl)methoxy-d2)-5-methyl-5a,6,7,8,9,10-hexahydro-5H-4-oxa-3,10a,11,13,14-pentaaza-6,9-methylnaphtho[1,8-ab]hept-2-yl)naphthalen-2-ol] | 210 mm^3 | 127.51% | 153 mm^3 | 13.29% |  |  |  |  |  |  |  |  |  | 
8 | CON=C1CCN(CC2(COc3nc4c5c(nc(-c6cc(N)cc(Cl)c6C(F)(F)F)c(F)c5n3)O[C@@H](C)[C@@H]3[C@@H]5CC[C@H](CN43)N5)CC2)CC1 [Example 337, 1-((1-((((5S,5aS,6S,9R)-2-(5-amino-3-chloro-2-(trifluoromethyl)phenyl)-1-fluoro-5-methyl-5a,6,7,8,9,10-hexahydro-5H-4-oxa-3,10a,11,13,14-pentaaza-6,9-methylnaphtho[1,8-ab]heptene-12-yl)oxy)methyl)cyclopropyl)methyl)piperidin-4-one O-methyloxime] |  |  |  |  |  |  |  |  |  | 632 ng·h/mL | 204 ng/mL | 1.7 h | 1 h | 
9 | [2H]C([2H])([2H])[C@@H]1Oc2nc(-c3cc(N)cc(Cl)c3C(F)(F)F)c(F)c3nc(OCC4(CN5CCC(=NOC)CC5)CC4)nc(c23)N2C[C@H]3CC[C@H](N3)[C@@H]12 [Example 339] |  |  |  |  | 13.8% | 133 ng·h/mL | 188 ng/mL | 125 mL/min/kg | 4.8 h | 476 ng·h/mL | 143 ng/mL | 1.8 h | 1 h | Tumor volume (mm^3, Mean ± SD) Day 0 ([1]; Table 12): 469 mm^3; TGI(%) Day 14 ([1]; Table 12): 160.47%; ΔT/ΔC(%) Day 14 ([1]; Table 12): 19.36%; Tumor volume (mm^3, Mean ± SD) Day 21 ([1]; Table 12): 185 mm^3
